Like-named read-outs stand apart in the source and are kept apart here.
Columns and labels:
mouse bone marrow cell = details: 60 mg/kg positive control; for Number of Micronucleus-containing PCEs: 5000 PCEs tested
Method: The mice were given the samples every 24 h. […] They were executed at 6 h after the last gavage of sample, with the sternal bone marrow taken, prepared into slides, fixed in methanol and stained with Giemsa.
3.4.3 Outcome measure: During the microscopy, 1,000 polychromatic erythrocytes (PCE) were counted for each animal to calculate the micronucleus rate (MN‰).

Kunming mice = assay: Length of sodium pentobarbital-induced sleep of mice with medicinal insomnia (ephedrine, prednisone); format: in vivo; details: sodium pentobarbital 50 mg/kg ip
Method: Kunming mice, male, 18-22 g in weight;
60 mice were taken and placed into the laboratory for one week for acclimatization. Then they were randomly divided into 6 groups and dosed according to the drug and dosage in the table.
The investigational drug and insomnia-induced drugs were proportionally prepared into soybean oil solutions as investigational products, which were administered with via intragastric gavage with the intragastric volume calculated by 0.1 mL per 10 g body weight. The blank group was directly given soybean oil via intragastric gavage once daily, for consecutive 7 days. Mice were fasted at 8 h prior to the last dosing and given sodium pentobarbital (50 mg/kg) via intraperitoneal injection at 30 min after dosing, at the indoor temperature of 20° C. and the humidity of 40%. Measurements were made by using the righting reflex tester, the absence of righting reflex over 1 min was deemed as falling asleep, and the absence time and recovery time of righting reflex were observed and recorded. The duration from the absence of righting reflex to its recovery was the length of sleep.

mouse sperm = assay: Mouse sperm malformation test; details: 2.0 mg/kg positive control
[1] = GC fingerprint: study on the sample stability; format: physicochemical; details: Semen Ziziphi Spinosae oil sample 2 test solution; for Relative peak area, RSD (%) / Relative retention time, RSD (%): RSD over 0-12 h; for Relative peak area, Mean / Relative retention time, Mean: mean over 0-12 h; for Relative peak area, standing time 0 / Relative retention time, standing time 0: tested at 0 h; for Relative peak area, standing time 0 / Relative retention time, standing time 0 / Relative peak area, standing time 3 / Relative retention time, standing time 3 / Relative peak area, standing time 6 / Relative retention time, standing time 6 / Relative peak area, standing time 9 / Relative retention time, standing time 9 / Relative peak area, standing time 12 / Relative retention time, standing time 12: GC; for Relative peak area, standing time 3 / Relative retention time, standing time 3: tested at 3 h; for Relative peak area, standing time 6 / Relative retention time, standing time 6: tested at 6 h; for Relative peak area, standing time 9 / Relative retention time, standing time 9: tested at 9 h; for Relative peak area, standing time 12 / Relative retention time, standing time 12: tested at 12 h
Method: Take 0.4 g of test sample, place into a 50 mL flask, add 6 mL of sodium hydroxide-methanol solution, and then connect with condenser water bath, and recirculate until the oil drops disappear, and slowly shake the flask every 30 sec to avoid solids formed by sodium hydroxide from being adhered onto the flask wall; recirculate 10 min, add 7 mL of boron trifluoride-methanol solution into the boiled solution through the top of the condenser using a pipette, boil for another 3 min, add 5 mL of isooctane into the boiling mixed solution through the top of the condenser, remove the condenser, take out the flask, add in 20 mL of sodium chloride solution immediately, plug the flask, shake the flask violently for 15 sec, transfer the mixed solution into a 150 mL separatory funnel, rinse the flask with 10 mL of isooctane solution twice (5 mL each time), merge the washing liquid into the separatory funnel, let the funnel stand still to stratify the solution, abandon the subnatant water liquid, place the supernatant isooctane solution into a 25 mL flask, fix the volume using isooctane, add a proper amount of sodium sulfate anhydrous to absorb the trace amount of water in the solution, shake the flask well and put aside for subsequent use.
GC: PerKinElmer Clarus 680
Chromatographic column: Agilent J&W Scientific DB-WAX quartz capillary column ([…]×0.32 mm, 0.25 μm)
Injector temperature: 270° C.,
Precisely draw 1 μL standard solution and 1 μL test solution into the gas chromatograph and conduct the test.
Semen Ziziphi Spinosae oil sample 2 was taken and prepared into test solution according to the preparation method under the item “3. Preparation of test article solution”, and the resulting test solution was tested at different time points (0 h, 3 h, 6 h, 9 h and 12 h) according to the experimental conditions under the item “4. Gas chromatographic conditions”.

Row | Compound | Relative peak area, RSD (%) [1] [%] | Relative retention time, RSD (%) [1] [%] | Relative peak area, Mean [1] | Relative retention time, Mean [1] | Relative peak area, standing time 0 [1] | Relative retention time, standing time 0 [1] | Relative peak area, standing time 3 [1] | Relative retention time, standing time 3 [1] | Relative peak area, standing time 6 [1] | Relative retention time, standing time 6 [1] | Relative peak area, standing time 9 [1] | Relative retention time, standing time 9 [1] | Relative peak area, standing time 12 [1] | Relative retention time, standing time 12 [1] | also measured
1 | O=P1(N(CCCl)CCCl)NCCCO1 (stereo not drawn) [Cyclophosphamide, cyclophosphamide] | – | – | – | – | – | – | – | – | – | – | – | – | – | – | Micronucleus-Cell Rate (mouse bone marrow cell; Female mice): 24.6 ± 6.3 ‰; PCE/RBC (mouse bone marrow cell; Female mice): 1.07 ± 0.13; Number of Micronucleus-containing PCEs (mouse bone marrow cell; Female mice): 123; Micronucleus-Cell Rate (mouse bone marrow cell; Male mice): 27.6 ± 10.4 ‰; PCE/RBC (mouse bone marrow cell; Male mice): 1.21 ± 0.14; Number of Micronucleus-containing PCEs (mouse bone marrow cell; Male mice): 138
2 | CN[C@@H](C)[C@H](O)c1ccccc1 [Ephedrine, ephedrine] | – | – | – | – | – | – | – | – | – | – | – | – | – | – | Length of Sleep (Kunming mice; Ephedrine 4 mg/kg alone ig 7 days): 60.8 ± 25.3 min
3 | CO[C@@]12[C@H](COC(N)=O)C3=C(C(=O)C(C)=C(N)C3=O)N1C[C@@H]1N[C@@H]12 [Mitomycin C, mitomycin C] | – | – | – | – | – | – | – | – | – | – | – | – | – | – | Abnormal Rate (mouse sperm): 5.88 ± 0.97 %; Number of Aberrant Sperm: Amorphous (mouse sperm; 5000 sperm tested): 119 n; Number of Aberrant Sperm: Banana (mouse sperm; 5000 sperm tested): 23 n; Number of Aberrant Sperm: Big head (mouse sperm; 5000 sperm tested): 5 n; Number of Aberrant Sperm: Folded (mouse sperm; 5000 sperm tested): 24 n; Number of Aberrant Sperm: Hook-free (mouse sperm; 5000 sperm tested): 113 n; Number of Aberrant Sperm: Subtotal (mouse sperm; 5000 sperm tested): 294 n; Number of Aberrant Sperm: Two-head/two-tail (mouse sperm; 5000 sperm tested): 10 n
4 | CC/C=C\C/C=C\C/C=C\CCCCCCCC(=O)OC [Peak 5] | 1.57 | 0.04 | 0.009 | 1.1834 | 0.009 | 1.184 | 0.009 | 1.184 | 0.009 | 1.184 | 0.009 | 1.183 | 0.009 | 1.183 | –
5 | CCCCCCCCCCCCCCCCCCCC(=O)OC [Peak 8] | 1.16 | 0.03 | 0.023 | 1.3064 | 0.023 | 1.307 | 0.023 | 1.307 | 0.023 | 1.306 | 0.023 | 1.306 | 0.023 | 1.306 | –
6 | CCCCCCCCCCCCCCCCCCCCCC(=O)OC [Peak 11] | 1.65 | 0.08 | 0.020 | 1.6532 | 0.020 | 1.655 | 0.021 | 1.654 | 0.021 | 1.653 | 0.021 | 1.651 | 0.021 | 1.653 | –
7 | CCCCCCCC/C=C\CCCCCCCC(=O)OC [Peak s] | 0.00 | 0.00 | 1.000 | 1.0000 | 1.000 | 1.000 | 1.000 | 1.000 | 1.000 | 1.000 | 1.000 | 1.000 | 1.000 | 1.000 | –
8 | C[C@]12C=CC(=O)C=C1CC[C@@H]1[C@@H]2C(=O)C[C@@]2(C)[C@H]1CC[C@]2(O)C(=O)CO [Prednisone, prednisone] | – | – | – | – | – | – | – | – | – | – | – | – | – | – | Length of Sleep (Kunming mice; Prednisone 1 mg/kg alone ig 7 days): 68.4 ± 27.1 min

Reference: US10881704B2, “Usage of semen Ziziphi spinosae oil in the treatment of medicinal insomnia” (SHIJIAZHUANG YILING PHARMACEUTICAL CO., LTD., priority 2016, dated 2021)
